Structures are written as SMILES. pKd: −log10 of the molar value. Where a name gives a salt, the structure may show the parent alone. Starred links: 1 amine or outer side, 2 acyl side, 3 side chain; linkers in the order of their positions; H or OH if unused. Positions of bridges follow the written chain, without caps; N, C: chain ends. Non-standard residues stand in square brackets, D forms with d. Residues, ends and D or L forms follow the SMILES beside them. Chains are numbered I, II in the order given. *: point of attachment. TATA = O=C(CC[*:1])N1CN(C(=O)CC[*:2])CN(C(=O)CC[*:3])C1; Dolaproine = CO[C@@H]([C@@H]1CCCN1)[C@@H](C)C(=O)O; Dil = CC[C@H](C)[C@H](NC)[C@@H](CC(=O)O)OC; 1Nal = N[C@@H](Cc1cccc2ccccc12)C(=O)O; X2 = O=C(CCCC(=O)[*:2])NCCC(=O)[*:1]; PABC = O=C(OCc1ccc(N[*:1])cc1)[*:2]; X1 = C[C@@H](N*)[C@@H](O)c1ccccc1; Hyp = O=C(O)[C@@H]1C[C@@H](O)CN1; hArg = N=C(N)NCCCC[C@H](N)C(=O)O; Cit = NC(=O)NCCC[C@H](N)C(=O)O; Pen = CC(C)(S)[C@H](N)C(=O)O; NMeV = CN[C@H](C(=O)O)C(C)C; hCys = N[C@@H](CCS)C(=O)O; Sar = CNCC(=O)O

For data set [1], the target named is T1, Human Nectin-4 (Homo sapiens, UniProt Q96NY8).
T1 construct: purchased GE Healthcare 1006-72
T1 sequence (Q96NY8 32-510): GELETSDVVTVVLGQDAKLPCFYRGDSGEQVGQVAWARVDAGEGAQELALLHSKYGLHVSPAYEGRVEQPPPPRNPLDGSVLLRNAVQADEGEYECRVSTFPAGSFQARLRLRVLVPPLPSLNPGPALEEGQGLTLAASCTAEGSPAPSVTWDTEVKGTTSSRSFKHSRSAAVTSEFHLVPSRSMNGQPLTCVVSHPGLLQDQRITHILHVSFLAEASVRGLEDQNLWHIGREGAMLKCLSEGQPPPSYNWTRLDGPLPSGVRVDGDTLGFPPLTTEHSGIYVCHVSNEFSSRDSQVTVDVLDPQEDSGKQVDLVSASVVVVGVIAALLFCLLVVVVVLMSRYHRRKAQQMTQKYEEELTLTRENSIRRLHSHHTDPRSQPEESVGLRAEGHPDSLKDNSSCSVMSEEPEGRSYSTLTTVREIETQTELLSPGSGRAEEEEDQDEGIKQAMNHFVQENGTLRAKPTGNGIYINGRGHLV
Briefly: Binding capacity to Nectin-4 protein (SPR, Biacore 8K). On the procedure:
Test Example 1. Binding Capacity Test of the Compounds of the Present Invention to Nectin-4 Protein
To detect the affinity of the compound to be tested to the target protein Nectin-4 using the SPR method.
• Biacore 8K (GE Healthcare) • 96-well Plate (Cat #650101, greiner bio-one) • CM5 chip (Cat #BR-1005-30, GE Healthcare) • Amine Coupling Kit (Cat #BR-1000-50, GE Healthcare) • EDC • NHS • 1 M ethanolamine • 10 mM sodium acetate pH 4.5 (Cat #BR-1003-50, GE Healthcare) • DMSO (Cat #D4540, Sigma) • P20 (Cat #BR-1000-54, GE Healthcare) • PBS (Cat #BR-1006-72, GE Healthcare) • Nectin-4 (Cat #1006-72, GE Healthcare) 3. Experimental Protocol
In this experiment, the amino coupling method was used. The target protein Nectin-4 was directly immobilized on the CM5 chip using Biacore 8K. […] The final data were subjected to Kinetics fitting analysis based on a 1:1 model using Biacore Insight Evaluation Software (V 2.0.15.12933).
1) Preparation of the buffer: 10 mM PBS, pH 7.4, 137 mM NaCl, 2.7 mM KCl, 5% DMSO, and 0.05% P20.
2) Activation of the CM5 chip: The CM5 chip was activated with 400 mM EDC and 100 mM NHS at a flow rate of 10 μL/min for 420 seconds.
3) Coupling of the target protein: The target protein was diluted to 10 μg/mL with 10 mM sodium acetate (pH 4.5) and coupled at a flow rate of 10 μL/min for 284 s. The 1 #, 2 #, and 3 #channels on the chip were used in the experiment, and the coupling results were 1639.9RU, 1747.8RU, and 1702.2RU, respectively.
4) Blocking of the CM5 chip: The CM5 chip was blocked with 1 M ethanolamine at a flow rate of 10 μL/min for 420 seconds.
5) Analyte concentration: The compound to be tested was diluted with the buffer. The compound to be tested was diluted from 100 nM to 0.78 nM in a 2-fold gradient.
6) Sample injection analysis: Each concentration of the working solution of the compound to be tested corresponded to one cycle, with a flow rate of 30 μL/min for binding for 180 seconds and dissociating for 180 seconds. The last cycle was a 5% DMSO solvent correction cycle.
7) All results were subjected to kinetics fitting analysis based on a 1:1 model. […]
Background: Surface plasmon resonance follows binding to a sensor surface in real time, without labels.

A short description of data set [2]: Pharmacokinetic analysis in Cynomolgus macaque plasma. It is filed as in vivo. To be noted: Cynomolgus macaques, single IV 1 mg/kg of the compound. The procedure: Test Example 6: Pharmacokinetic Analysis in Cynomolgus Macaque Plasma
To test the pharmacokinetics of the compounds of the present invention in Cynomolgus macaques.
(§1) The pharmacokinetic characteristics of the compound after intravenous injection were tested according to a standard protocol in Cynomolgus macaques. The compound to be tested was formulated into a clear solution using 25 mM L-histidine (pH=7) in 10% sucrose as a vehicle. Cynomolgus macaques were given a single intravenous injection of 1 mg/kg of the compound to be tested. Whole blood was collected at time points of 0.083, 0.25, 0.5, 1, 2, 4, 8, and 24 hours after administration to get plasma. The concentration of the compound to be tested and the concentration of its potential metabolite MMAE were analyzed by the LC-MS/MS method, and the pharmacokinetic parameters were calculated by Phoenix WinNonlin software.

A short description of data set [3]: Pharmacokinetic analysis in rat plasma. It is filed as in vivo, SD rats. The procedure: Test Example 5: Pharmacokinetic Analysis of the Compounds of the Present Invention in Rat Plasma
To test the pharmacokinetics of the compounds of the present invention in SD rats.
as §1, with “were tested in rats according to” for “were tested according to”, “a standard protocol. The compound” for “a standard protocol in Cynomolgus macaques. The compound”, “a vehicle. Two rats were given” for “a vehicle. Cynomolgus macaques were given”, “injection of 3 mg/kg of” for “injection of 1 mg/kg of”, “the compound of the present invention and the” for “the compound to be tested and the”

The mark [4] stands for this setting: metabolite MMAE in SD rat plasma after single IV 3 mg/kg acetate salt of PDC_2.

As to `CC[C@H](C)[C@@H]([C@@H](CC(=O)N1CCC[C@H]1[C@H](OC)[C@@H](C)C(=O)N[C@H](C)[C@@H](O)c1ccccc1)OC)N(C)C(=O)[C@@H](NC(=O)[C@H](C(C)C)N(C)C(=O)OCc1ccc(NC(=O)[C@H](CCCNC(N)=O)NC(=O)[C@@H](NC(=O)CCCC(=O)NCCC(=O)N(C)CC(=O)N(C)CC(=O)N(C)CC(=O)N(C)CC(=O)N(C)CC(=O)N(C)CC(=O)N(C)CC(=O)N(C)CC(=O)N(C)CC(=O)N(C)CC(=O)N[C@H]2CCCCNC(=O)C[C@@H](C(=O)N[C@H]3CSCCC(=O)N4CN5CN(C4)C(=O)CCSC(C)(C)[C@H](NC(=O)[C@@H](CC(=O)O)NC(=O)[C@H](Cc4cccc6ccccc46)NC(=O)[C@@H]4CCCN4C3=O)C(=O)N[C@@H](CCSC)C(=O)N[C@@H](CCCCNC(=N)N)C(=O)N[C@@H](CC(=O)O)C(=O)N[C@@H](Cc3c[nH]c4ccccc34)C(=O)N[C@@H](CO)C(=O)N[C@@H]([C@@H](C)O)C(=O)N3CCC[C@H]3C(=O)N3C[C@H](O)C[C@H]3C(=O)N[C@@H](Cc3c[nH]c4ccccc34)C(=O)N[C@H](C(N)=O)CSCCC5=O)NC(=O)[C@H](CCCCNC(=N)N)NC2=O)C(C)C)cc1)C(C)C` [Acetate salt of PDC_1] (I: [Sar][Sar][Sar][Sar][Sar][Sar][Sar][Sar][Sar][Sar]K[hArg]DCP[1Nal][dD][Pen]M[hArg]DWSTP[Hyp]WC-NH2 / II: V[Cit][PABC][NMeV]V[Dil][Dolaproine]-X1; lactam I:11-I:13; linker I:14-I:18-I:28 via TATA; linker I:N-II:N via X2), the negative-log Kd (pKd) in data set [1] was 8.85.
Still for that read-out and setting: to `CC[C@H](C)[C@@H]([C@@H](CC(=O)N1CCC[C@H]1[C@H](OC)[C@@H](C)C(=O)N[C@H](C)[C@@H](O)c1ccccc1)OC)N(C)C(=O)[C@@H](NC(=O)[C@H](C(C)C)N(C)C(=O)OCc1ccc(NC(=O)[C@H](CCCNC(N)=O)NC(=O)[C@@H](NC(=O)CCCC(=O)NCCC(=O)N(C)CC(=O)N(C)CC(=O)N(C)CC(=O)N(C)CC(=O)N(C)CC(=O)N(C)CC(=O)N(C)CC(=O)N(C)CC(=O)N(C)CC(=O)N(C)CC(=O)N[C@H]2CCCCNC(=O)C[C@@H](C(=O)N[C@H]3CSCCC(=O)N4CN5CN(C4)C(=O)CCSC(C)(C)[C@H](NC(=O)[C@@H](CC(=O)O)NC(=O)[C@H](Cc4cccc6ccccc46)NC(=O)[C@@H]4CCCN4C3=O)C(=O)N[C@@H](CCSC)C(=O)N[C@@H](CCCCNC(=N)N)C(=O)N[C@@H](CC(=O)O)C(=O)N[C@@H](Cc3c[nH]c4ccccc34)C(=O)N[C@@H](CO)C(=O)N[C@@H]([C@@H](C)O)C(=O)N3CCC[C@H]3C(=O)N3C[C@H](O)C[C@H]3C(=O)N[C@@H](Cc3c[nH]c4ccccc34)C(=O)N[C@H](C(N)=O)CCSCCC5=O)NC(=O)CN(C)C2=O)C(C)C)cc1)C(C)C` [Acetate salt of PDC_3] (I: [Sar][Sar][Sar][Sar][Sar][Sar][Sar][Sar][Sar][Sar]K[Sar]DCP[1Nal][dD][Pen]M[hArg]DWSTP[Hyp]W[hCys]-NH2 / II: V[Cit][PABC][NMeV]V[Dil][Dolaproine]-X1; lactam I:11-I:13; linker I:14-I:18-I:28 via TATA; linker I:N-II:N via X2) belongs 8.38.
On to `CC[C@H](C)[C@@H]([C@@H](CC(=O)N1CCC[C@H]1[C@H](OC)[C@@H](C)C(=O)N[C@H](C)[C@@H](O)c1ccccc1)OC)N(C)C(=O)[C@@H](NC(=O)[C@@H](NC)C(C)C)C(C)C` [MMAE, monomethyl auristatin E] (H-[NMeV]V[Dil][Dolaproine]-X1), for which the “MMAE release in blood” value in data set [2] is “lower MMAE release in blood than a detection limit”. Moreover, the “exposure of metabolite MMAE relative to exposure of the compound” value in data set [3] (SD rats, single IV 3 mg/kg) is listed as “about 1/40”. In addition, in data set [3] (setting [4]), the AUC0-last was 0.11 µM·h and the peak concentration (Cmax) was 70 nM.

For orientation: pKd means −log10 of the Kd, conventionally taken in molar units. A higher pKd goes with a small Kd. One may read the Cmax as the peak of the concentration-time curve.

The record behind these values is patent publication US12539335B2, “Tricyclic polypeptide conjugated drug and use thereof” (CONJUSTAR (ZHUHAI) BIOLOGICS CO., LTD., priority 2021, dated 2026).
